Where “and” joins values, the source holds several entries; their conditions need not be identical. Equal values may be shown once.
Assays:
Experiment in all cases: Ras BRET sensor in cells overexpressing K-Ras mutants (Y32A, Y40A, Y32A/Y40A) and AT1R
[1] = biological target: T1, K-Ras Y32A, Y40A, Y32A/Y40A (Homo sapiens, UniProt P01116, Y40A); format: cell-based; settings: Rasarfin 50 μM, K-Ras Y40A
T1 construct: expressed in transfected cells; host or cells: HEK293SL
Text: (§1) Because Tyr32 and Tyr40, located on the switch I domain of Ras, are critical for stabilizing Rasarfin binding through interactions with both the chlorine and isopropyl moiety (Fig. 7a, c), we reasoned that substituting them for Ala residues would negatively impact Rasarfin’s inhibitory action on Ras. […] Because we wanted to assess the inhibitory action of Rasarfin over different Ras subtypes, we mutated the two tyrosine residues to an alanine in K-Ras (Y32A, Y40A, and Y32A/Y40A mutants) within the same Rasarfin binding site found in H-Ras (Lys^5-Thr^74). This domain and residues are perfectly conserved among the Ras family members[44],[45]. WT K-Ras and K-Ras mutants were overexpressed along with AT1R in cells and AngII-mediated activation of Ras was assessed using the Ras BRET sensor (Supplementary Fig. 11a).
(§2) HEK293SL cells were seeded at a density of 7.5 × 10^5 cells per 100-mm dish and 24 h later, transiently transfected as such. For receptor internalization experiments, cells were transfected with 0.12 μg AT1R-RlucII, B2R-RlucII, or β2AR-RlucII and 0.48 μg of either rGFP-CAAX (to assess removal from the PM) or rGFP-FYVE (to assess accumulation in the endosomes). For β-arrestin recruitment assays, cells were transfected with 0.48 μg of receptor-YFP along with 0.12 μg of β-arrestin-RlucII. For β-arrestin/AP-2 binding experiments, cells were transfected with 1 μg Flag-AT1R, 1 μg β2-Adaptin-YFP, and 0.12 μg β-arrestin2-RlucII. For G protein activation, cells were transfected with 3 μg of sp-Flag-AT1R along with either 4.5 μg of the Gαq-polycistronic BRET sensor or 0.24 μg of the Gαi3-RlucII and 0.6 μg of GFP10-Gγ2 and Gβ1 sensors or 0.12 μg PKN-RBD-RlucII and 0.48 μg of rGFP-CAAX. For PKC activation, cells were transfected with 3 μg of sp-Flag-AT1R and 0.18 μg of the PKC sensor. For GTPase activation experiments, cells were transfected with 1 μg Flag-AT1R, 0.48 μg of rGFP-CAAX, and either 0.12 μg of GGA3-PBD-RlucII, PAK-CRIB-RlucII or Raf-RBD-RlucII. For biosensor validation experiments, cells were additionally transfected with 500 ng Flag-K-Ras-WT, Flag-K-Ras-G12V, Flag-K-Ras-SOS-CAAX, HA-ARF6-WT, HA-ARF6-T27N, Myc-Rac1-WT, Myc-Rac1-Q61L or Myc-Rac1-T17N. For PI3K/Akt activation experiments, cells were transfected with 0.48 μg of rGFP-CAAX and 0.12 μg of Akt (PH)-RlucII. After 18 h of transfection, the media was replaced and cells were divided for subsequent experiments. Cells were detached and seeded onto poly-L-ornithine-coated 96-well flat white bottom plates (BrandTech Scientific) at a density of 2.5 × 10^4 cells per well in media. The next day, cells were washed once with Tyrode’s buffer (140 mM NaCl, 2.7 mM KCl, 1 mM CaCl2, 12 mM NaHCO3, 5.6 mM D-glucose, 0.5 mM MgCl2, 0.37 mM NaH2PO4, 25 mM HEPES, pH 7.4) and left in Tyrode’s buffer. For kinetics of β-arrestin recruitment or β-arrestin binding to receptor and AP-2 experiments, cells were serum starved for 30 min, pretreated with 21 (50 µM) or Barbadin (100 µM) for 30 min, stimulated with 100 nM AngII or 1 µM BK and BRET signals were monitored at indicated times using a Victor X Light plate reader (PerkinElmer). Coelenterazine H (final concentration of 5 µM) was added 3–5 min prior to BRET measurements. Filter set was 460/80 nm and 535/30 nm for detecting the RlucII Renilla luciferase (donor) and YFP (acceptor) light emissions, respectively. The BRET ratio was determined by calculating the ratio of the light emitted by YFP over the light emitted by the RlucII. For G protein activation, cells were serum starved, pretreated with compounds for 30 min, stimulated with 100 nM AngII for 2 min (Gαq, Gαi3, and Rho sensors) or 5 min (PKC sensor). For the kinetics of GTPase and PI3K/Akt activation, cells were serum starved, pretreated with 21 (50 µM) or Wortmannin (200 nM) for 30 min, stimulated with ligand (100 nM AngII or 100 ng/ml EGF) and BRET signals were monitored at indicated times. […]

[2] = tested on: K-Ras Y32A, Y40A, Y32A/Y40A; format: cell-based, human; settings: 50 μM
Text: as §1, §2

[3] = biological target: T2, K-Ras Y32A, Y40A, Y32A/Y40A (Homo sapiens, UniProt P01116, Y32A/Y40A); format: cell-based; settings: Rasarfin 50 μM, K-Ras Y32A/Y40A, Bonferroni's multiple comparisons test
T2 construct: expressed in transfected cells; host or cells: HEK293SL
Text: as §1, §2

[4] = biological target: T3, K-Ras Y32A, Y40A, Y32A/Y40A (Homo sapiens, UniProt P01116, Y32A); format: cell-based; settings: Rasarfin 50 μM, K-Ras Y32A
T3 construct: expressed in transfected cells; host or cells: HEK293SL
Text: as §1, §2

[5] = Bonferroni's multiple comparisons test

CC(C)C(=O)N1CCN(c2ccc(NC(=O)c3cc4ccccc4o3)cc2Cl)CC1 [Compound 21]
AngII-promoted BRET [1]: 0.072 and 0.05667 and 0.08167 and 0.04433
AngII-promoted BRET, Mean Diff. DMSO - Rasarfin [1, 5]: 0.011
AngII-mediated activation of K-Ras Y32A, Y40A, Y32A/Y40A mutants (Ras BRET sensor) [2]: only WT was significantly inhibited by Rasarfin
AngII-promoted BRET, Mean Diff. DMSO - Rasarfin [3]: 0.004167
AngII-promoted BRET [4]: 0.1037 and 0.088 and 0.0995 and 0.056
AngII-promoted BRET, Mean Diff. DMSO - Rasarfin [4, 5]: 0.006083

Source: paper PMC8333425, “Discovery of a dual Ras and ARF6 inhibitor from a GPCR endocytosis screen” (Nature Communications, 2021)
